Values quoted from earlier work as cited in US5874104A, “Treatment of systemic fungal infections with phospholipid particles encapsulating polyene antibiotics” (NeXstar Pharmaceuticals, Inc., priority 1995, dated 1999).

Tests used:
host = details: in vivo
patients = details: for Toxicity to cells of the patient: human, in vivo
renal tubules = details: mammals
[1] = saline as suspending solution; Jurgens et al.

Row | Compound | Host toxicity of liposomal drug (host) | Toxicity to cells of the patient (patients) | Toxicity for membrane systems (renal tubules) | Clinical toxicity (patients; at therapeutic dose levels) | Precipitation in saline [1]
1 | liposomal Amphotericin B | decreased host toxicity |  |  |  | 
2 | C[C@@H]1[C@H](O)[C@@H](C)/C=C/C=C/CC/C=C/C=C/C=C/C=C/C(O[C@H]2O[C@H](C)[C@@H](O)[C@H](N)[C@@H]2O)CC2O[C@](O)(CC(O)C(O)CCC(O)CC(O)CC(O)CC(=O)O[C@H]1C)CC(O)C2C(=O)O (stereo partly drawn) [nystatin] |  | acute and chronic toxicity |  |  | 
3 | C[C@@H]1[C@H](O)[C@@H](C)/C=C/C=C/C=C/C=C/C=C/C=C/C=C/[C@H](O[C@@H]2O[C@H](C)[C@@H](O)[C@H](N)[C@@H]2O)C[C@@H]2O[C@](O)(C[C@@H](O)C[C@@H](O)[C@H](O)CC[C@@H](O)C[C@@H](O)CC(=O)O[C@H]1C)C[C@H](O)[C@H]2C(=O)O [amphotericin B] |  | acute and chronic toxicity | greater for certain membrane systems, such as the renal tubules | acute hemolytic crisis and eventual kidney failure | precipitation
